Literature values as cited in patent US4213968A, “Enkephalin derivatives” (priority 1978, dated 1980).

Columns and labels:
[1] = system: brain opiate receptor sites
analgesia in the rat = details: injected directly into the brain of the rat

Q: Which results are given for “H-Tyr-Gly-Gly-Phe-Met-OH [methionine enkephalin]”?
A: binding to partially purified brain opiate receptor sites [1]: binds stereospecifically; activity in bioassays for opiate activity (opiate activity): very active; analgesic activity (analgesia in the rat): weak analgesic activity of short duration
